Experimental data taken from PubChem BioAssay AID1033 (Sanford-Burnham Center for Chemical Genomics, 2008).
Values joined by “and” are separate entries in the source; they are usually repeats but may differ in a detail not shown here. Identical values can stand only once. Active and inactive are the calls of the source. No rule for the calls is given here.

Molecular target: Chaperone protein DnaK (Escherichia coli (strain K12)) (UniProt P0A6Y8)
Assay: E. coli DnaK SBD ligand binding – biophysical, NMR, chaperone (AID 1033)
Details: Purified DnaK SBD

Chain of Chaperone protein DnaK (Escherichia coli (strain K12)) (P0A6Y8 whole entry, looked up): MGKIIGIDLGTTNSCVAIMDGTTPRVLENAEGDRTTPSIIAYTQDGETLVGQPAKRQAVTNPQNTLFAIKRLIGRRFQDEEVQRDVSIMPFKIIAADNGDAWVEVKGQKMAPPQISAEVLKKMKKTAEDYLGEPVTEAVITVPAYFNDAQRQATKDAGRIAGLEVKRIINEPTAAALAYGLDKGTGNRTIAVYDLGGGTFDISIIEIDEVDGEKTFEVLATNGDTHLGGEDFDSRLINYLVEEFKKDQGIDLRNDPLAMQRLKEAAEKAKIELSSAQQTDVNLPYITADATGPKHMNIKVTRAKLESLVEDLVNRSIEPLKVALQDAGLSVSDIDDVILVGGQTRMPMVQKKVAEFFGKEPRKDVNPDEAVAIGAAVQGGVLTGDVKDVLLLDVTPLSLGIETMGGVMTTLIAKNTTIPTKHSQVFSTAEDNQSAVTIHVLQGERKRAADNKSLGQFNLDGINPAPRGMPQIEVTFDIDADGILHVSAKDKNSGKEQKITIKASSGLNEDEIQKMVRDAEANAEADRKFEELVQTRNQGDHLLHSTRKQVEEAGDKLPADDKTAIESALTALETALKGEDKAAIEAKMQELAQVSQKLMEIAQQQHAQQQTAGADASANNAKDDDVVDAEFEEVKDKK

Row | SMILES | Kd
1 | COc1ccc(C(N)=O)cc1N | > 4 mM (inactive)
2 | Cc1c(-c2ccccc2)[n+](=O)c(-c2ccco2)c(C)n1[O-] | > 4 mM (inactive)
3 | CCCCC(Nc1n[nH]c(=O)[nH]c1=O)C(=O)O (configuration not stated) | > 4 mM (inactive)
4 | Cn1ccc(C(=O)NC(=S)NN2CCOCC2)n1 | > 4 mM (inactive)
5 | NCCCCN=C(N)N | > 4 mM (inactive)
6 | NC12CC3CC(C1)CC(O)(C3)C2 | > 4 mM (inactive)
7 | Nc1ccc(-c2csnn2)cc1 | > 4 mM (inactive)
8 | CS(=O)(=O)Nc1ccc(C(=O)N2CCCCC2)cc1 | > 4 mM (inactive)
9 | NC(=O)C1CCN(C(=O)CN2CCc3ccccc32)CC1 | > 4 mM (inactive)
10 | O=C(O)CCCC(=O)Nc1nccs1 | > 4 mM (inactive)
11 | Cc1nccc2c1[nH]c1ccccc12 | > 4 mM (inactive)
12 | COc1c2c(cc3c1OCO3)C13C=C[C@H](OC)CC1N(C2)CC3O (some centres not stated) | > 4 mM (inactive)
13 | CC(C)=CCc1c2c(c3occ(-c4ccc(O)cc4)c(=O)c3c1O)C=CC(C)(C)O2 | > 4 mM (inactive)
14 | NC(=O)CSc1ccc2nnc(-c3cccs3)n2n1 | > 4 mM (inactive)
15 | COC(=O)N1CCN(c2ccc(OC)cc2)CC1 | > 4 mM (inactive)
16 | O=c1[nH]c(=S)c2c(n1-c1ccccc1)CCC2 | > 4 mM (inactive)
17 | CNC(=S)Nc1ncn(Cc2cccc(F)c2)n1 | > 4 mM (inactive)
18 | OC1CCCN(Cc2ccccc2)C1 (configuration not stated) | > 4 mM (inactive)
19 | C=CCCCCCCCCCCCC(O)CC(O)COC(C)=O (configuration not stated) | > 4 mM (inactive)
20 | COc1cc(O)c2c(=O)c(O)c(-c3ccc(O)c(O)c3)oc2c1 | > 4 mM (inactive)
21 | Nc1cc(F)nc(F)n1 | > 4 mM (inactive)
22 | CC(=O)Nc1sccc1C(=O)NC(N)=O | > 4 mM (inactive)
23 | Cc1nnc(SCC(N)=O)c2ccccc12 | > 4 mM (inactive)
24 | O=C(NCc1ccccc1F)c1cccs1 | 0.158 mM and < 0.2 mM
25 | c1coc(CNc2nc(-c3ccncc3)cs2)c1 | > 4 mM (inactive)

Row | SMILES | Kd
26 | CCn1nccc1C(=O)Nc1ccc(Cl)cc1Cl | > 4 mM (inactive)
27 | Cc1cc(N)ccc1NC(=O)c1ccco1 | > 4 mM (inactive)
28 | CS(C)=C1C(=O)NC(=O)N(c2ccccc2)C1=O | > 4 mM (inactive)
29 | CCOc1ccccc1C(=O)NC1=NCCS1 | > 4 mM (inactive)
30 | Cc1cc(NC(=O)CCCn2cnc([N+](=O)[O-])n2)no1 | > 4 mM (inactive)
31 | Cc1cc2cc3c(C)cc(=O)oc3c(C)c2o1 | > 4 mM (inactive)
32 | Cc1nnc(NCCO)[nH]c1=O | > 4 mM (inactive)
33 | CC(=O)N1CCN(S(=O)(=O)c2ccccc2)CC1 | > 4 mM (inactive)
34 | Cc1occc1C(=O)Nc1ccc2c(c1)OCO2 | > 4 mM (inactive)
35 | Nc1nc(-c2ccc(F)c(F)c2)cs1 | > 4 mM (inactive)
36 | Nc1nonc1-c1nc2ccccc2[nH]1 | > 4 mM (inactive)
37 | CC1(C)CC(NC(=O)/C=C/C(=O)O)CC(C)(C)N1 | > 4 mM (inactive)
38 | CCCCn1c(=O)cc(O)c2ccccc21 | > 4 mM (inactive)
39 | CS(=O)(=O)NC1CCN(Cc2ccccc2)CC1 | > 4 mM (inactive)
40 | O=C(O)CSc1nnc(-c2cccs2)o1 | > 4 mM (inactive)
41 | CCN1CCc2c(sc(N)c2C(N)=O)C1 | > 4 mM (inactive)
42 | CCOC(=O)C(C)c1n[nH]c(=O)c2ccccc12 (configuration not stated) | > 4 mM (inactive)
43 | CC(=O)O[C@H]1CC[C@@]2(C)C(C[C@@H](OC(C)=O)[C@@]3(C)C4=CC(=O)O[C@@H](c5ccoc5)[C@]4(C)CCC23)C1(C)C (some centres not stated) | > 4 mM (inactive)
44 | CC(=O)Nc1cc(O)cc(O)c1 | > 4 mM (inactive)
45 | O=c1c2c(nc3nc(Cc4ccccc4)[nH]n13)CCC2 | > 4 mM (inactive)
46 | c1ccc(C[N+]23CCN(CC2)CC3)cc1 | > 4 mM (inactive)
47 | Fc1ccc(Br)cc1/C=N/n1cnnc1 | > 4 mM (inactive)
48 | NC(=O)CSc1nnc(-c2ccncc2)o1 | > 4 mM (inactive)
49 | O=C(O)Cn1cc(C(=O)C2CC2)c2ccccc21 | > 4 mM (inactive)
50 | CC(=O)Nc1ccc(NC(C)=O)c(C(F)(F)F)c1 | > 4 mM (inactive)

Row | SMILES | Kd
51 | NC(=O)CC1Sc2ccccc2NC1=O (configuration not stated) | > 4 mM (inactive)
52 | COc1cnn(-c2ccccc2)c(=O)c1N(C)C | > 4 mM (inactive)
53 | CC(Sc1ncn[nH]1)C(=O)O (configuration not stated) | > 4 mM (inactive)
54 | CC(C)(O)P(C)(=O)c1ccccc1 (configuration not stated) | > 4 mM (inactive)
55 | CN1CCC(N(C)Cc2cccnc2)CC1 | > 4 mM (inactive)
56 | c1ccc(-n2cnnc2)nc1 | > 4 mM (inactive)
57 | CCC(/C=C/[C@@H](C)[C@H]1CCC2C3CC=C4C[C@@H](O)CC[C@]4(C)C3CC[C@@]21C)C(C)C (some centres not stated) | > 4 mM (inactive)
58 | O=C(O)/C=C(\CC(=O)O)C(=O)O | > 4 mM (inactive)
59 | Cc1cc(C(=O)Nc2sc(C)c(C)c2C#N)no1 | > 4 mM (inactive)
60 | CC(=O)Oc1ccc2c(c1C(C)C)CCC1C(C)(C)CCC[C@]21C (some centres not stated) | > 4 mM (inactive)
61 | OCc1cc(-c2cccs2)on1 | > 4 mM (inactive)
62 | COc1cc(OC)c(OC)cc1C=O | > 4 mM (inactive)
63 | O=C1NCC(=O)N2CCc3ccccc3C12 (configuration not stated) | > 4 mM (inactive)
64 | CCOC(=O)C1CCN(Cc2ccccc2)CC1 | > 4 mM (inactive)
65 | Nc1ccc(OCc2ccccc2)cc1 | > 4 mM (inactive)
66 | CC(=O)Nc1ccc(S(=O)(=O)N2CCN=C2C)cc1 | > 4 mM (inactive)
67 | O=C(Nc1ccccn1)c1cc(-n2cnnc2)ccc1Cl | > 4 mM (inactive)
68 | CC1=C2C(=CO[C@H](C)[C@H]2C)C(=O)C(C(=O)O)=C1O | > 4 mM (inactive)
69 | c1ccc(SCc2nc(-c3cccnc3)no2)cc1 | > 4 mM (inactive)
70 | O=C(O)CCNc1n[nH]c(=O)[nH]c1=O | > 4 mM (inactive)
71 | O=C(Nc1ccc2c(c1)OCO2)c1cnn2cccnc12 | > 4 mM (inactive)
72 | O=c1[nH]cnc2nc[nH]c12 | > 4 mM (inactive)
73 | Cc1nc(-c2cnccn2)sc1C(=O)O | > 4 mM (inactive)
74 | O=[n+]1c2c(n([O-])c3ccccc31)CCCC2 | > 4 mM (inactive)
75 | COCC(=O)OCn1nnc2ccccc2c1=O | > 4 mM (inactive)

Row | SMILES | Kd
76 | CCn1cnc(C(=O)NC)c1C(=O)NC | > 4 mM (inactive)
77 | NC(=O)CSc1ccc2nnc(-c3ccccc3)n2n1 | > 4 mM (inactive)
78 | Cc1cc(O)c2c(c1O)C(=O)c1c(O)cc(C)c(O)c1C2=O | > 4 mM (inactive)
79 | C#CCCCCCCCCCCCC(O)CC(O)COC(C)=O (configuration not stated) | > 4 mM (inactive)
80 | NC(=O)CSc1nc2ccccc2[nH]1 | > 4 mM (inactive)
81 | CC(=O)O[C@H]1C[C@@H](OC(C)=O)C(C)(C)C2C[C@@H](OC(C)=O)[C@@]3(C)C4=CC(=O)O[C@@H](c5ccoc5)[C@]4(C)CCC3[C@]21C (some centres not stated) | > 4 mM (inactive)
82 | CC1(C)Cc2c(C#N)c(N)n(-c3ccccc3)c(=O)c2CO1 | > 4 mM (inactive)
83 | O=C(O)CCCCCCCC(=O)O | > 4 mM (inactive)
84 | CC(O)(C(=O)O)c1ccccc1 (configuration not stated) | > 4 mM (inactive)
85 | COC1C(O)C(O)C(O)[C@@H](O)C1O (some centres not stated) | > 4 mM (inactive)
86 | Cc1oc(S(=O)(=O)N2CCCCC2)cc1C(=O)O | > 4 mM (inactive)
87 | O=C(NCCO)NC(=S)c1ccccc1 | > 4 mM (inactive)
88 | O=C(Nc1cnccn1)c1ccncc1 | > 4 mM (inactive)
89 | COCc1cc(Cl)nc(-c2csc(C)n2)n1 | > 4 mM (inactive)
90 | NCc1ccc2c(c1)OCCCO2 | > 4 mM (inactive)
91 | Oc1cc(O)cc(/C=C/c2ccccc2)c1 | > 4 mM (inactive)
92 | COc1cc(S(=O)(=O)N(C)C)ccc1F | > 4 mM (inactive)
93 | Nc1ncnc(Cl)c1[N+](=O)[O-] | > 4 mM (inactive)
94 | Nc1ncnc2c1ncn2[C@@H]1O[C@H](CO)[C@@H](O)[C@H]1O | > 4 mM (inactive)
95 | O=C(O)C1CN2CCC1CC2 (configuration not stated) | > 4 mM (inactive)
96 | CNC(=O)C(=O)Nc1ccc(F)cc1 | > 4 mM (inactive)
97 | O=S(=O)(N1CCOCC1)n1nnc2ccccc21 | > 4 mM (inactive)
98 | Cc1ccc(C(C)C)cc2c(C)ccc1-2 | > 4 mM (inactive)
99 | O=C1CSC(=Nc2cccc(C(=O)O)c2)N1 | > 4 mM (inactive)
100 | CCOC(=O)c1ccc(F)c(F)c1 | > 4 mM (inactive)

Row | SMILES | Kd
101 | CN(C)S(=O)(=O)c1ccc(C(=O)NN)cc1 | > 4 mM (inactive)
102 | COC(CC(=O)O)c1nc2ccccc2s1 (configuration not stated) | > 4 mM (inactive)
103 | NC(=O)Cn1cnc(-c2ccc(F)cc2)c1 | > 4 mM (inactive)
104 | Cc1noc(C)c1C(=O)NC1=NCCS1 | > 4 mM (inactive)
105 | CN(C)c1nc(N2CCOCC2)c2cnn(C)c2n1 | > 4 mM (inactive)
106 | COc1cc2c(c(OC)c1OC)-c1ccc(OC)c(=O)cc1[C@@H](NC(C)=O)CC2 | > 4 mM (inactive)
107 | COc1c2ccoc2cc2oc(=O)ccc12 | > 4 mM (inactive)
108 | O=C(O)c1cc(O)c2c(c1)[C@@H]([C@H]1c3cc(C(=O)O)cc(O)c3C(=O)c3c(O[C@H]4O[C@H](CO)[C@@H](O)[C@H](O)[C@H]4O)cccc31)c1cccc(O[C@H]3O[C@H](CO)[C@@H](O)[C@H](O)[C@H]3O)c1C2=O | > 4 mM (inactive)
109 | COc1ccc(N2CC(=O)NC2=O)cc1 | > 4 mM (inactive)
110 | Cn1cccc1C=C1C(=O)NC(=S)NC1=O | > 4 mM (inactive)
111 | NC(=O)c1ccccc1NC(=O)c1cccnc1 | > 4 mM (inactive)
112 | N/N=C1\CCCc2c1no[n+]2[O-] | > 4 mM (inactive)
113 | CSc1ccc2nnc(-c3cccnc3)n2n1 | > 4 mM (inactive)
114 | CCOC(=O)c1c(C)[nH]c2ccc(O)cc12 | > 4 mM (inactive)
115 | O=CN1CCN(C(=O)c2ccc(F)cc2)CC1 | > 4 mM (inactive)
116 | Cc1occc1C(=O)NCc1ccccc1F | > 4 mM (inactive)
117 | CC(C)=NNC(=O)C(=O)Nc1ccc(F)cc1 | > 4 mM (inactive)
118 | CCNS(=O)(=O)c1ccc(OC)c(C)c1 | > 4 mM (inactive)
119 | CN1CCC(NC(=S)NC2CC2)CC1 | > 4 mM (inactive)
120 | Cc1cccc(N2C(=O)CCC2=O)n1 | > 4 mM (inactive)
121 | O=C1C2CC=CCC2C(=O)N1c1cccc(O)c1 (configuration not stated) | > 4 mM (inactive)
122 | CCOC(=O)c1c(C)cc(OC)cc1O | > 4 mM (inactive)
